From ChEMBL document CHEMBL5226326, “Discovery of 1-Benzoyl 4-Phenoxypiperidines as Small-Molecule Inhibitors of the β-Catenin/B-Cell Lymphoma 9 Protein-Protein Interaction” (J Med Chem, 2021)

How the values were obtained:
[1] = biological target: T1, Catenin beta-1/Cadherin-1 (Homo sapiens, UniProt P35222); test: Inhibition of full length beta-catenin (1 to 686 residues) (unknown origin) expressed in Escherichia coli BL21 (DE3)/N-terminal biotinylated human E-cadherin (824 to 877 residues) protein-protein interaction incubated for 2 hr by fluorescence anisotropy binding assay
T1 sequence (P35222 whole entry): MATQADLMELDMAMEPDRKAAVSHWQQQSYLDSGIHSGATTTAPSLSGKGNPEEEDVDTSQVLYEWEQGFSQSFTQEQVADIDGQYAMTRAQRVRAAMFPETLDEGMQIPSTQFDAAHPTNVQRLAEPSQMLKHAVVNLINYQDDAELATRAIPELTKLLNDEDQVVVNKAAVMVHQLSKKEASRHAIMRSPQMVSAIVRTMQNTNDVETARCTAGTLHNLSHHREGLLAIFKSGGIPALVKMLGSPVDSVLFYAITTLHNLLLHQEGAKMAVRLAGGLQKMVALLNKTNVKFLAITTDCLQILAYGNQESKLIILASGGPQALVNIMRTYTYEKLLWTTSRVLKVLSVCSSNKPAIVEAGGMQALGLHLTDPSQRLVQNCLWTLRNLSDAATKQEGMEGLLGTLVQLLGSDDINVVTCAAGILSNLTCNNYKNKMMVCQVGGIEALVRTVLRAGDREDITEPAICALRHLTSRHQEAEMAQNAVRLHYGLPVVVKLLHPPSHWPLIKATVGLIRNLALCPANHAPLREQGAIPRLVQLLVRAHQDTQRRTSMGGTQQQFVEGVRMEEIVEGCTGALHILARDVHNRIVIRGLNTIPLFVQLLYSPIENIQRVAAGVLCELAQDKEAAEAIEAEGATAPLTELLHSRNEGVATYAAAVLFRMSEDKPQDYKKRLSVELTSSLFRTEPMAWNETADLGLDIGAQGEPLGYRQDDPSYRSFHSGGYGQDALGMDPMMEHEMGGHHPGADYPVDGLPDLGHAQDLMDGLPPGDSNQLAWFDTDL
T1 sequence (P12830 whole entry): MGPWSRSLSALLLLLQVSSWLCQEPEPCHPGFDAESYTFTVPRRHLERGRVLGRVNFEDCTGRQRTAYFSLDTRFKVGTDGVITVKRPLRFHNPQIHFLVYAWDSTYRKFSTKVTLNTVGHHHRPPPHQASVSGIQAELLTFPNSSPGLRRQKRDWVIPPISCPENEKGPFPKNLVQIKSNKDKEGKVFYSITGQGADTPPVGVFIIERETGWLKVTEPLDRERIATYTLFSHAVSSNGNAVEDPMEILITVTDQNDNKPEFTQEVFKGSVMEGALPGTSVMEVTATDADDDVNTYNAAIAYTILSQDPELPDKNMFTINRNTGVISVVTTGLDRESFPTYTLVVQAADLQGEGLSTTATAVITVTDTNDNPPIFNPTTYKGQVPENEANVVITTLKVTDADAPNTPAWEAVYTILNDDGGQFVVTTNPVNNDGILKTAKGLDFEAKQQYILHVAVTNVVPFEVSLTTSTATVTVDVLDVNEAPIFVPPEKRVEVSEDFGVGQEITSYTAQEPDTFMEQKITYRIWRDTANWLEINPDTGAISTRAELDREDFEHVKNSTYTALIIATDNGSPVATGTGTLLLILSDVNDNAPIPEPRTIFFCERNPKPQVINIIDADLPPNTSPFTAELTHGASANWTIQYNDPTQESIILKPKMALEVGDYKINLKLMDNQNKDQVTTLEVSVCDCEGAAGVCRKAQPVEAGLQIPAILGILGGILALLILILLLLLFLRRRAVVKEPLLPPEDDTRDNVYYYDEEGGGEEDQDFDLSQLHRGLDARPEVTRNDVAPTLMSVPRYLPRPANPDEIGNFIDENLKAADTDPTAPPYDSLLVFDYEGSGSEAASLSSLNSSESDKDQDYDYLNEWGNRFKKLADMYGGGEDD

[2] = Drug uptake in human MDA-MB-231 cells at 2 uM incubated at 37 degree C measured after 6 hrs by HPLC analysis; type: ADME, cell-based; conditions: mda-mb-231, 6 h
MDA-MB-231 = test: Antiproliferative activity against beta-catenin signalling overexpressing human MDA-MB-231 cells assessed as reduction in cell growth incubated for 72 hrs by MTS assay; type: functional, cell-based; conditions: MDA-MB-231, 72 h
[3] = Inhibition of full length beta-catenin D145A mutant/N-terminal biotinylated human BCL9 HD2 (350 to 375 residues) protein-protein interaction in human SW480 cells incubated for 1 hr by Alphascreen assay; type: cell-based
[4] = Inhibition of Wnt/beta-catenin transactivation signalling in human HEK293 cells transfected with TOPFlash reporter gene incubated for 24 hrs by TOPFlash luciferase assay; type: cell-based; conditions: HEK293, 24 h

CC(C)(C)C1CCC(c2cc(C(=O)N3CCC(Oc4cc(N5CCNCC5)ccc4C#N)CC3)ccc2O[C@H]2CCNC2)CC1.Cl.Cl (mixture of isomers; cis)
Kd [1]: 67 µM
Drug uptake [2]: 88 µM
IC50 (MDA-MB-231): 4.1 µM
Ki [3]: 6.9 µM
IC50 [4]: 5.7 µM
